Reference: US20130261154A1 (priority 2010, published 2013)

What was measured:
Format in all cases: in vivo
Phytophthora infestans [1] = conditions: tomato seedlings; inoculated, 17 h later sprayed to run-off; visual disease rating; test concentration not given
Plasmopara viticola = experiment: Test A: grape downy mildew, spray after inoculation of grape seedlings; conditions: inoculated, 24 h later sprayed to run-off, visual disease rating, test concentration not given
Description: General protocol for preparing test suspensions for Test A-C: The test compounds were first dissolved in acetone in an amount equal to 3% of the final volume and then suspended at the desired concentration (in ppm) in acetone and purified water (50/50 mix by volume) containing 250 ppm of the surfactant Trem® 014 (polyhydric alcohol esters). The resulting test suspensions were then used in Tests A-C. Spraying a 40 ppm test suspension to the point of run-off on the test plants was equivalent to a rate of 160 g/ha.
Grape seedlings were inoculated with a spore suspension of Plasmopara viticola (the causal agent of grape downy mildew) and incubated in a saturated atmosphere at 20° C. for 24 h. After a short drying period, the test suspension was sprayed to the point of run-off on the grape seedlings, which were then moved to a growth chamber at 20° C. for 5 days, after which time the grape seedling were placed back into a saturated atmosphere at 20° C. for 24 h. Upon removal, visual disease ratings were made.
Results for Tests A-C are given in Table A. In the table, a rating of 100 indicates 100% disease control and a rating of 0 indicates no disease control (relative to the controls).

Phytophthora infestans [2] = conditions: tomato seedlings; sprayed to run-off, inoculated the following day; visual disease rating; test concentration not given

## Cc1cc(C(F)(F)F)nn1CC(=O)N1CCC(c2nc(C3=NOC(CCOc4ccccc4I)C3)cs2)CC1 (stereo not drawn) [Compound 1]
Phytophthora infestans [1]
  Test C disease control rating (100 = 100% disease control, 0 = no disease control relative to the controls): 91%
Plasmopara viticola
  Test A disease control rating (100 = 100% disease control, 0 = no disease control relative to the controls): 86%
Phytophthora infestans [2]
  Test B disease control rating (100 = 100% disease control, 0 = no disease control relative to the controls): 99%

## Cc1cc(C(F)(F)F)nn1CC(=O)N1CCC(c2nc(C3=NOC(CCOc4c(F)cccc4F)C3)cs2)CC1 (stereo not drawn) [Compound 2, 1-[4-[4-[5-[2-(2,6-difluorophenoxy)ethyl]-4,5-dihydro-3-isoxazolyl]-2-thiazolyl]-1-piperidinyl]-2-[5-methyl-3-(trifluoromethyl)-1H-pyrazol-1-yl]ethanone]
Phytophthora infestans [1]
  Test C disease control rating (100 = 100% disease control, 0 = no disease control relative to the controls): 99%
Plasmopara viticola
  Test A disease control rating (100 = 100% disease control, 0 = no disease control relative to the controls): 96%
Phytophthora infestans [2]
  Test B disease control rating (100 = 100% disease control, 0 = no disease control relative to the controls): 100%

## Cc1cc(C(F)(F)F)nn1CC(=O)N1CCC(c2nc(C3=NOC(COCN4C(=O)c5ccccc5C4=O)C3)cs2)CC1 (stereo not drawn) [Compound 3, 2-[[[4,5-dihydro-3-[2-[1-[2-[5-methyl-3-(trifluoromethyl)-1H-pyrazol-1-yl]acetyl]-4-piperidinyl]-4-thiazolyl]-5-isoxazolyl]methoxy]methyl]-1H-isoindole-1,3(2H)-dione]
Phytophthora infestans [1]
  Test C disease control rating (100 = 100% disease control, 0 = no disease control relative to the controls): 46%
Plasmopara viticola
  Test A disease control rating (100 = 100% disease control, 0 = no disease control relative to the controls): 40%
Phytophthora infestans [2]
  Test B disease control rating (100 = 100% disease control, 0 = no disease control relative to the controls): 95%

## Cc1cc(C(F)(F)F)nn1CC(=O)N1CCC(c2nc(C3=NOC(CC(=O)NCc4c(F)cccc4F)C3)cs2)CC1 (stereo not drawn) [Compound 4, N-[(2,6-difluorophenyl)methyl]-4,5-dihydro-3-[2-[1-[2-[5-methyl-3-(trifluoromethyl)-1H-pyrazol-1-yl]acetyl]-4-piperidinyl]-4-thiazolyl]-5-isoxazoleacetamide]
Phytophthora infestans [1]
  Test C disease control rating (100 = 100% disease control, 0 = no disease control relative to the controls): 99%
Plasmopara viticola
  Test A disease control rating (100 = 100% disease control, 0 = no disease control relative to the controls): 24%
Phytophthora infestans [2]
  Test B disease control rating (100 = 100% disease control, 0 = no disease control relative to the controls): 100%

## Cc1cc(C(F)(F)F)nn1CC(=O)N1CCC(c2nc(C3=NOC(CCCN4C(=O)c5ccccc5C4=O)C3)cs2)CC1 (stereo not drawn) [Compound 5]
Phytophthora infestans [1]
  Test C disease control rating (100 = 100% disease control, 0 = no disease control relative to the controls): 99%
Plasmopara viticola
  Test A disease control rating (100 = 100% disease control, 0 = no disease control relative to the controls): 67%
Phytophthora infestans [2]
  Test B disease control rating (100 = 100% disease control, 0 = no disease control relative to the controls): 100%

## Cc1cc(C(F)(F)F)nn1CC(=O)N1CCC(c2nc(C3=NOC(CC(=O)Nc4c(F)cccc4F)C3)cs2)CC1 (stereo not drawn) [Compound 6]
Phytophthora infestans [1]
  Test C disease control rating (100 = 100% disease control, 0 = no disease control relative to the controls): 46%
Plasmopara viticola
  Test A disease control rating (100 = 100% disease control, 0 = no disease control relative to the controls): 0%
Phytophthora infestans [2]
  Test B disease control rating (100 = 100% disease control, 0 = no disease control relative to the controls): 9%

## Cc1cc(C(F)(F)F)nn1CC(=O)N1CCC(c2nc(C3=NOC(CCCn4c(=O)sc5ccc(Cl)cc54)C3)cs2)CC1 (stereo not drawn) [Compound 8, 5-chloro-3-[3-[4,5-dihydro-3-[2-[1-[2-[5-methyl-3-(trifluoromethyl)-1H-pyrazol-1-yl]acetyl]-4-piperidinyl]-4-thiazolyl]-5-isoxazolyl]propyl]-2(3H)-benzothiazolone]
Phytophthora infestans [1]
  Test C disease control rating (100 = 100% disease control, 0 = no disease control relative to the controls): 0%
Plasmopara viticola
  Test A disease control rating (100 = 100% disease control, 0 = no disease control relative to the controls): 0%
Phytophthora infestans [2]
  Test B disease control rating (100 = 100% disease control, 0 = no disease control relative to the controls): 100%

## Cc1cc(C(F)(F)F)nn1CC(=O)N1CCC(c2nc(C3=NOC(CCON4C(=O)c5ccccc5C4=O)C3)cs2)CC1 (stereo not drawn) [Compound 9]
Phytophthora infestans [1]
  Test C disease control rating (100 = 100% disease control, 0 = no disease control relative to the controls): 73%
Plasmopara viticola
  Test A disease control rating (100 = 100% disease control, 0 = no disease control relative to the controls): 0%
Phytophthora infestans [2]
  Test B disease control rating (100 = 100% disease control, 0 = no disease control relative to the controls): 99%

## Cc1cc(C(F)(F)F)nn1CC(=O)N1CCC(c2nc(C3=NOC(COc4c(F)cccc4F)C3)cs2)CC1 (stereo not drawn) [Compound 10]
Phytophthora infestans [1]
  Test C disease control rating (100 = 100% disease control, 0 = no disease control relative to the controls): 64%
Plasmopara viticola
  Test A disease control rating (100 = 100% disease control, 0 = no disease control relative to the controls): 0%
Phytophthora infestans [2]
  Test B disease control rating (100 = 100% disease control, 0 = no disease control relative to the controls): 100%

## Cc1cc(C(F)(F)F)nn1CC(=O)N1CCC(c2nc(C3=NOC(CCCOc4c(F)cccc4F)C3)cs2)CC1 (stereo not drawn) [Compound 11]
Phytophthora infestans [1]
  Test C disease control rating (100 = 100% disease control, 0 = no disease control relative to the controls): 99%
Plasmopara viticola
  Test A disease control rating (100 = 100% disease control, 0 = no disease control relative to the controls): 100%
Phytophthora infestans [2]
  Test B disease control rating (100 = 100% disease control, 0 = no disease control relative to the controls): 100%

## Cc1cc(C(F)(F)F)nn1CC(=O)N1CCC(c2nc(C3=NOC(CCCCOc4c(F)cccc4F)C3)cs2)CC1 (stereo not drawn) [Compound 12]
Phytophthora infestans [1]
  Test C disease control rating (100 = 100% disease control, 0 = no disease control relative to the controls): 92%
Plasmopara viticola
  Test A disease control rating (100 = 100% disease control, 0 = no disease control relative to the controls): 100%
Phytophthora infestans [2]
  Test B disease control rating (100 = 100% disease control, 0 = no disease control relative to the controls): 99%

## COc1ccc(OCCC2CC(c3csc(C4CCN(C(=O)Cn5nc(C(F)(F)F)cc5C)CC4)n3)=NO2)c(F)c1 (stereo not drawn) [Compound 13]
Phytophthora infestans [1]
  Test C disease control rating (100 = 100% disease control, 0 = no disease control relative to the controls): 95%
Plasmopara viticola
  Test A disease control rating (100 = 100% disease control, 0 = no disease control relative to the controls): 100%
Phytophthora infestans [2]
  Test B disease control rating (100 = 100% disease control, 0 = no disease control relative to the controls): 100%

## Cc1cc(C(F)(F)F)nn1CC(=O)N1CCC(c2nc(C3=NOC(CCOc4c(F)cc(C#N)cc4F)C3)cs2)CC1 (stereo not drawn) [Compound 14]
Phytophthora infestans [1]
  Test C disease control rating (100 = 100% disease control, 0 = no disease control relative to the controls): 73%
Plasmopara viticola
  Test A disease control rating (100 = 100% disease control, 0 = no disease control relative to the controls): 99%
Phytophthora infestans [2]
  Test B disease control rating (100 = 100% disease control, 0 = no disease control relative to the controls): 100%

## Cc1cc(C(F)(F)F)nn1CC(=O)N1CCC(c2nc(C3=NOC(CCOc4ccc(C#N)cc4F)C3)cs2)CC1 (stereo not drawn) [Compound 15]
Phytophthora infestans [1]
  Test C disease control rating (100 = 100% disease control, 0 = no disease control relative to the controls): 99%
Plasmopara viticola
  Test A disease control rating (100 = 100% disease control, 0 = no disease control relative to the controls): 100%
Phytophthora infestans [2]
  Test B disease control rating (100 = 100% disease control, 0 = no disease control relative to the controls): 100%

## COc1cc(F)c(OCC2CC(c3csc(C4CCN(C(=O)Cn5nc(C(F)(F)F)cc5C)CC4)n3)=NO2)c(F)c1 (stereo not drawn) [Compound 16]
Phytophthora infestans [1]
  Test C disease control rating (100 = 100% disease control, 0 = no disease control relative to the controls): 99%
Plasmopara viticola
  Test A disease control rating (100 = 100% disease control, 0 = no disease control relative to the controls): 99%
Phytophthora infestans [2]
  Test B disease control rating (100 = 100% disease control, 0 = no disease control relative to the controls): 100%

## COC(=O)c1ccc(OCCC2CC(c3csc(C4CCN(C(=O)Cn5nc(C(F)(F)F)cc5C)CC4)n3)=NO2)c(F)c1 (stereo not drawn) [Compound 17]
Phytophthora infestans [1]
  Test C disease control rating (100 = 100% disease control, 0 = no disease control relative to the controls): 99%
Plasmopara viticola
  Test A disease control rating (100 = 100% disease control, 0 = no disease control relative to the controls): 100%
Phytophthora infestans [2]
  Test B disease control rating (100 = 100% disease control, 0 = no disease control relative to the controls): 100%

## COc1cc(F)c(OCCC2CC(c3csc(C4CCN(C(=O)Cn5nc(C(F)(F)F)cc5C)CC4)n3)=NO2)c(F)c1 (stereo not drawn) [Compound 18]
Phytophthora infestans [1]
  Test C disease control rating (100 = 100% disease control, 0 = no disease control relative to the controls): 17%
Plasmopara viticola
  Test A disease control rating (100 = 100% disease control, 0 = no disease control relative to the controls): 79%
Phytophthora infestans [2]
  Test B disease control rating (100 = 100% disease control, 0 = no disease control relative to the controls): 71%
